Results from US20150141439A1, “PHARMACEUTICAL COMPOSITION FOR THE PREVENTION OR TREATMENT OF BRAIN TUMOR OR TEMODAL RESISTANT GLIOBLASTOMA MULTIFORM COMPRISING AZATHIOPRINE AS AN ACTIVE INGREDIENT” (KOREA RESEARCH INSTITUTE OF CHEMICAL TECHNOLOGY, priority 2012, published 2015).

Tests used:
[1] = test system: GBM #7 glioblastoma multiform patient originated cells; assay: Neurosphere formation inhibition, GBM #7; assay type: cell-based, human; design: key: S: strong effect; I: intermediate effect; R: rare effect; conditions: GBM #7, type B (classical), Azathioprine 1 μM, duration 23 day
Protocol: (§1) Particularly, to investigate neurosphere formation, glioblastoma multiform cells were cultured for a certain time and the cells were distributed again in culture vessels, followed by additional culture. Then, the number of newly generated neurospheres was measured. First, the glioblastoma multiform patient originated cells were sub-cultured, which were distributed in a 96-well plate (20, 50, and 200 cells in 50 μl of culture medium/well). 2, 6, and 20 μM of the compound of formula 1 (azathioprine) and the compound of Comparative Example 1 (Temodal) were treated thereto by 50 μl per well to make the final concentrations of 1, 3, and 10 μM. Then, the compound of formula 1 (azathioprine) and the compound of Comparative Example 1 (Temodal) were added to 50 μl of cell culture medium with the same concentrations as the above once a week, which were then cultured for 7˜23 days. When neurosphere was formed at least 50 μm in the control group not treated with the compound, the number of neurospheres in each well was counted to compare the neurosphere formation before and after the treatment of the compound of formula 1 (azathioprine) and the compound of Comparative Example 1 (Temodal).
The glioblastoma multiform cells used in this experiment were classified into 4 types, which are type A, type B, type C, and type D, according to the gene expression pattern. […]

[2] = test system: GBM #1 glioblastoma multiform patient originated cells; assay: Neurosphere formation inhibition, GBM #1; assay type: cell-based, human; design: key to inhibition of neurosphere formation: S: strong effect; I: intermediate effect; R: rare effect
Protocol: as §1
The glioblastoma multiform cells used in this experiment were classified into 4 types, which are type A, type B, type C, and type D, according to the gene expression pattern. Methylation of MGMT (O6-me-G methyltransferase), the DNA repair protein, was confirmed in each cell line. At that time, type A [GBM #1, #2, #3] was proneural subtype, type B [GBM #4, #5, #6, #7] was classical subtype, type C [GBM #8] was mesenchymal subtype, and type D [GBM #9, #10] was non-classified glioblastoma multiform.

[3] = test system: glioblastoma multiform cells transplanted in the brain of a mouse; assay: Glioblastoma multiform orthotopic animal model, survival; assay type: in vivo
Protocol: Following experiment was performed to investigate the radiosensitizing effect and chemosensitizing effect of the compound of formula 1 (azathioprine) in the glioblastoma multiform orthotopic animal model.
Particularly, to investigate the resistance against Temodal or radiotherapy in glioblastoma multiform, glioblastoma multiform cells were cultured. The cultured cells (2×10^5/5 μl) were transplanted in the brain of a mouse. 17 days later, the administration of Temodal (65 mg/kg, oral-administration) or radiotherapy (2 Gy) began, which continued for 5 days. The average survival period was investigated. […] For the comparison, the survival period of the group treated with “Avastin”, the well-known anticancer agent, is also presented.
Glioblastoma multiform, glioblastoma multiform cells were cultured. The cultured cells (2×10^5/5 μl) were transplanted in the brain of a mouse. 17 days later, the administration of Temodal (65 mg/kg, oral-administration) or radiotherapy (2 Gy) began, which continued for 5 days. Unlike the above experiment, the compound of formula 1 of the present invention (azathioprine) was co-treated to the mouse by oral-administration at the dose of 20 mg/kg every day after 11 days from the glioblastoma multiform transplantation in the mouse brain. Then, the average survival period was investigated.

[4] = test system: GBM #2 glioblastoma multiform patient originated cells; assay: Neurosphere formation inhibition, GBM #2; assay type: cell-based, human; design: key: S: strong effect; I: intermediate effect; R: rare effect; conditions: GBM #2, type A (proneural), Azathioprine 1 μM, duration 15 day
Protocol: as §1, with “2, 6, and 20 μM of the compound of formula 1 (azathioprine) and the compound of Comparative Example 1 (Temodal) were treated thereto by 50 μl per well to make the final concentrations of 1, 3, and 10 μM.” left out
The glioblastoma multiform cells used in this experiment were classified into 4 types, which are type A, type B, type C, and type D, according to the gene expression pattern. Methylation of MGMT (O6-me-G methyltransferase), the DNA repair protein, was confirmed in each cell line. […]

[5] = test system: normal human astrocytes (NHA); assay: WST-1 cell proliferation assay, NHA; assay type: cell-based
Protocol: (§2) Particularly, the cell growth inhibition effect was measured by WST-1 cell proliferation assay [http://www.roche-applied-science.com/PROD_INF/MANUALS/CELL_MAN/apoptosis—087—088.pdf]. The compound of formula 1 was loaded in a 384-well cell culture plate. Three types of glioblastoma multiform cell lines [proneural subtype (559T), mesenchymal subtype (592T), and classical subtype (626T)], normal human astrocytes (NHA), a lung cancer cell line (A549), and a glioblastoma multiform cell line (U87MG) were distributed in the plate at the density of 4.5×10^3 cells/well, and the medium was filled up to make 50 μl per well. At this time, the concentration of the solvent DMSO for the compound of formula 1 was no more than 0.2%. After culturing the cells for 72 hours, 5 mg/ml of WST-1 reagent was added by 5 μl per well, followed by reaction for 3˜4 hours. Then OD450 was measured to investigate the effect of the compound of formula 1 on cell proliferation.

[6] = test system: HepG2 Human hepatocarcinoma; assay: Secondary cytotoxicity test, HepG2; assay type: cell-based
Protocol: as §2
(§3) To investigate the cell growth inhibition effect of the compound of formula 1 of the present invention (azathioprine) in many different cell lines, secondary cytotoxicity test was performed with the cell lines listed in Table 5 by the same manner as described in Example 1.

[7] = test system: CCD986SK Human fibroblast; assay: Secondary cytotoxicity test, CCD986SK; assay type: cell-based; conditions: CCD-986Sk
Protocol: as §2, §3

In the case of `Cn1cnc([N+](=O)[O-])c1Sc1ncnc2nc[nH]c12` [Azathioprine, 6-(1-methyl-4-nitro-1H-imidazol-5-ylthio)-7H-purine], the “inhibition of neurosphere formation” value [1] is reported as “S”, the “inhibition of neurosphere formation” value ([2]; GBM #1, type A (proneural), Azathioprine 1 μM, duration 7 day) is reported as “R” and the neurosphere formation ([2]; GBM#1, azathioprine raised to 10 μM) is reported as “significantly inhibited”. For the same molecule, the “Average Survival Period” value ([3]; radiotherapy (2 Gy) 5 days from day 17 + azathioprine 20 mg/kg oral every day after day 11, control 28 days) was 41 days, the “Survival Period Extension Rate (%)” value ([3]; radiotherapy (2 Gy) 5 days from day 17 + azathioprine 20 mg/kg oral every day after day 11, vs. control) was 44% and the “inhibition of neurosphere formation” value [4] was “S”. It also gave an inhibition at 0.032 µM ([5]; Homo sapiens, Astrocyte, 0.032 μM, 72 hours, read-out: Cell Growth Inhibition (% Inhibition)) of 1.9%, an inhibition at 0.1 µM ([5]; Homo sapiens, Astrocyte, 0.1 μM, 72 hours, read-out: Cell Growth Inhibition (% Inhibition)) of 5.9% and an inhibition at 0.32 µM ([5]; Homo sapiens, Astrocyte, 0.32 μM, 72 hours, read-out: Cell Growth Inhibition (% Inhibition)) of 11%. For the same molecule, the inhibition at 1 µM ([5]; Homo sapiens, Astrocyte, 1.0 μM, 72 hours, read-out: Cell Growth Inhibition (% Inhibition)) was 8.3%, the inhibition at 3.2 µM ([5]; Homo sapiens, Astrocyte, 3.2 μM, 72 hours, read-out: Cell Growth Inhibition (% Inhibition)) was 10.5% and the inhibition at 10 µM ([5]; Homo sapiens, Astrocyte, 10 μM, 72 hours, read-out: Cell Growth Inhibition (% Inhibition)) was -2.4%. The GI50 ([5]; Homo sapiens, Astrocyte, 72 hours) was greater than 10 µM, the “toxicity in normal astrocytes” value ([5]; WST-1, up to 10 μM) was “did not cause toxicity” and the IC50 [6] was greater than 10 µM. The IC50 [7] was greater than 10 µM.
